{"source": "patent US10245262B2", "about": "“Immunological reagents and uses therefor” (THE UNIVERSITY OF QUEENSLAND, priority 2014, dated 2019)", "key": {"Jurkat.MAIT cells": {"tested_on": "Jurkat.MAIT cells", "assay": "Activation of Jurkat.MAIT cells (CD69 upregulation) co-incubated with C1R.MR1 cells", "assay_type": "cell-based", "details": "for Jurkat.MAIT activation compared to 5-A-RU added by itself: compound added with 5-A-RU to C1R.MR1 cells", "procedure": "(§1) Jurkat cells transduced with genes encoding a MAIT TCR comprising the TRAV1-2-TRAJ33 invariant α chain, and a TRBV6-1 β chain, or SKW cells transduced with genes encoding the TRAV1-2-TRAJ33 invariant α chain with either w.t. Tyr95 or mutated Tyr95Ala or Tyr95Phe residues, paired with a TRBV6-1 β chain, were tested for activation by co-incubation with bacterial culture supernatant or compounds and C1R antigen presenting cells expressing MR1 (CIR.MR1, with Jurkat.MAIT cells), or C1R cells (SKW.MAIT cells) for 16 hr. Cells were subsequently stained with PE-Cy7-conjugated anti-CD3 (eBioscience), and APC-conjugated anti-CD69 (BD) antibodies as well as biotinylated anti-MR1 mAb 26.5 (Huang S. et al (2005)), followed by Streptavidin-PE (BD), before analysis by flow cytometry. Activation of Jurkat.MAIT or SKW.MAIT cells was measured by an increase in surface CD69 expression. MR1 expression was detected on gated C1R.MR1 cells in the same assay."}, "C1R.MR1 cells": {"tested_on": "C1R.MR1 cells", "assay": "Detection of MR1 expression on C1R.MR1 cells (mAb 26.5 staining)", "assay_type": "cell-based", "details": "for MR1 upregulation compared to 5-A-RU added by itself: compound added with 5-A-RU to C1R.MR1 cells", "procedure": "as §1"}, "SKW.MAIT cells": {"tested_on": "SKW.MAIT cells", "assay": "Activation of wild-type, Y95A or Y95F mutant SKW.MAIT cells with C1R cells", "assay_type": "cell-based", "details": "compound added to C1R cells", "text": "FIG. 4 is a graph showing MR1-Ag tetramers and MAIT activation. […] (c) EICs of m/z 315.09, or m/z 317.10. (d) (i) Activation assay and (ii) MR1 upregulation with 5-A-RU, methylglyoxal (MG), butane-2,3-dione (BD), glyoxal (G), or rRL-6-CH2OH. MFI of 26.5-PE antibody staining (e) (i) CD69 upregulation and (ii) MR1 upregulation with 5-A-RU, MG, BD, or G. MFI of 26.5-PE. (f) Activation of wild-type, Y95A, or Y95F mutant SKW.MAIT cells by 5-A-RU. Mean of triplicates with SEM. Experiments were performed at least twice (b, c, f) or 3 times (a, d, e).\nas §1, with “Cells were subsequently stained with PE-Cy7-conjugated anti-CD3 (eBioscience), and APC-conjugated anti-CD69 (BD) antibodies as well as biotinylated anti-MR1 mAb 26.5 (Huang S. et al (2005)), followed by Streptavidin-PE (BD), before analysis by flow cytometry.” left out"}, "human MR1": {"target": "T1, human MR1 (Homo sapiens, UniProt Q95460, C283S)", "T1 construct": "Soluble human MR1 a.a; made in house", "T1 sequence (Q95460 with tags, fused parts or gaps C283S)": "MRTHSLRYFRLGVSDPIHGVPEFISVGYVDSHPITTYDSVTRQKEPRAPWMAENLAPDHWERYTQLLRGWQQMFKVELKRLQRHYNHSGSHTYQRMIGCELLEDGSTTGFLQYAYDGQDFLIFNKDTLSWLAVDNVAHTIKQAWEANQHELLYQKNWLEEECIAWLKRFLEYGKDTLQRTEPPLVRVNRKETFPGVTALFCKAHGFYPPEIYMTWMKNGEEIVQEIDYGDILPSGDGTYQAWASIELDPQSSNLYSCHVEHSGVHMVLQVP", "T1 sequence (P61769 21-119 partner)": "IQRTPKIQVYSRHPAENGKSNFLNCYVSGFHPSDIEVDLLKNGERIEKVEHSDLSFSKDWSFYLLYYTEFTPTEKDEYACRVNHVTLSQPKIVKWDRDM", "assay": "Refolding of MR1 and β2m with ligand", "assay_type": "binding"}, "[1]": {"details": "for half-life: buffer", "procedure": "FIG. 7 is a graph showing stability of 5-OP-RU (a) Reaction between 5-A-RU (0.5 mM) and methylglyoxal (3 eq) at pH 6.8, 37° C. in MilliQ water. RL-6-Me represents 6-methyl-8-D-ribityllumazine. (b) Stability of purified 5-OP-RU (65 μM) at pH 6.8 and 37° C. […] (c) Stability of purified 5-OP-RU (65 μM) at variable pH in aqueous TBS buffer (10 mM Tris, 150 mM NaCl, pH 8.0), MilliQ water (pH 6.8), or ammonium acetate buffer (20 mM, pH 5.4) at 15° C.\nThe purified 5-OP-RU was dissolved in aqueous TBS buffer (10 mM Tris, 150 mM NaCl, pH 8.0), MilliQ water (pH 6.8), or aqueous ammonium acetate buffer (20 mM, pH 5.4). The consumption of 5-OP-RU was immediately monitored by LCMS. The initial concentration was quantified by comparing to a standard solution of known concentration."}, "MR1 [2]": {"tested_on": "MR1", "assay": "Crystal structure of MAIT TCR-MR1-Ag complexes", "assay_type": "binding, human", "procedure": "Crystals of the soluble MAIT TCR-MR1-Ag complexes were obtained using the hanging drop vapour diffusion method. The MR1-2M-5-OP-RU, MR1-2M-5-OE-RU, MR1, MR1-K43A-2M-5-OP-RU and MAIT TCR were concentrated to 4 mg/ml, mixed in a 1:1 molar ratio, then […] of a precipitant solution consisting 0.1 M bis-tris propane pH 6.3, 0.2 M sodium acetate and varying concentrations of PEG 3350 between 8-14% w/v. Crystals were observed after incubation at 20° C. for 24 hours in dark conditions and cryoprotected prior to diffraction experiments by soaking in the crystallisation condition modified with between 10-15% v/v glycerol before cooling to 100K. Diffraction images were collected at the Australian Synchrotron MX2 beamline diffracting in a C2 spacegroup to 2.50 Å, 2.10 Å and 2.20 Å for the MR1-2M-5-OP-RU, MR1-2M-5-OE-RU, and MR1-K43A-2M-5-OP-RU complexes with the MAIT TCR respectively. The data were processed using Mosflm version 7.0.9 and scaled using AIMLESS or SCALA (MR1-K43A-2M-5-OP-RU only) from the CCP4 Suite. The phase problem was solved by molecular replacement using PHASER (McCoy A. J. (2007)), using MR1 ternary complex (PDB code 4L4T) (Patel O. et al (2013)) with CDR loops and ligands removed and using the Rfree reflection set from the model. […]"}, "MAIT cells": {"tested_on": "MAIT cells", "assay": "MAIT cell accumulation in lungs after intranasal S. Typhimurium infection", "assay_type": "in vivo, mice", "details": "with BR509ΔribDH (10^7) i.n.; 200 μl of 1.52 μM i.v. at d1, d3, d5; day 7 post infection"}, "MR1 [3]": {"tested_on": "MR1", "details": "cited from earlier work"}, "[4]": {"details": "compound added alone to C1R.MR1 cells"}}, "note": "Where two headings read alike, the source gives them in different places."}
{"molecule": "Nc1c(NC[C@H](O)[C@H](O)[C@H](O)CO)[nH]c(=O)[nH]c1=O", "note": "[5-A-RU, 5-amino-6-D-ribitylaminouracil]", "values": [{"measurement": "activation of Jurkat.MAIT cells", "setting": "Jurkat.MAIT cells; [4]", "value": "activation of Jurkat.MAIT cells"}, {"measurement": "MR1 cell surface upregulation", "setting": "C1R.MR1 cells; [4]", "value": "MR1 cell surface upregulation"}, {"measurement": "recognition by SKW.MAIT cells with Tyr95α mutated to Ala95 or Phe95", "setting": "SKW.MAIT cells", "value": "ablated recognition"}, {"measurement": "MR1-ligand complex on refolding MR1 with the compound alone", "setting": "human MR1", "value": "undetectable"}]}
{"molecule": "O=CC=Nc1c(NC[C@H](O)[C@H](O)[C@H](O)CO)[nH]c(=O)[nH]c1=O", "note": "[5-OE-RU, 5-(2-oxoethylideneamino)-6-D-ribitylaminouracil]", "values": [{"measurement": "stability (in words)", "setting": "[1]", "value": "relatively unstable"}, {"measurement": "binding mode in the MR1 cleft", "setting": "MR1 [2]", "value": "formed a Schiff base with Lys43 of MR1"}]}
{"molecule": "CC(=O)C=Nc1c(NC[C@H](O)[C@H](O)[C@H](O)CO)[nH]c(=O)[nH]c1=O", "note": "[5-OP-RU, 5-(2-oxopropylideneamino)-6-D-ribitylaminouracil]", "values": [{"measurement": "half-life", "setting": "[1]; pH 5.4", "value": 49, "unit": "min"}, {"measurement": "half-life", "setting": "[1]; pH 6.8", "value": "around 2 h"}, {"measurement": "binding mode in the MR1 cleft", "setting": "MR1 [2]", "value": "formed a Schiff base with Lys43 of MR1"}, {"measurement": "accumulation of MAIT cells in lungs", "setting": "MAIT cells", "value": "accumulation is observed"}]}
{"molecule": "Cc1nc2c(=O)[nH]c(=O)nc-2n(C[C@H](O)[C@H](O)[C@H](O)CO)c1O", "note": "[RL-6-Me-7-OH, 7-hydroxy-6-methyl-8-D-ribityllumazine]", "values": [{"measurement": "binding mode in the MR1 cleft", "setting": "MR1 [3]", "value": "non-covalently bound within MR1"}]}
{"molecule": "CC(=O)C(C)=O", "note": "[butane-2,3-dione]", "values": [{"measurement": "Jurkat.MAIT activation compared to 5-A-RU added by itself", "setting": "Jurkat.MAIT cells", "value": "nor was there an increase in Jurkat.MAIT activation"}, {"measurement": "MR1 upregulation compared to 5-A-RU added by itself", "setting": "C1R.MR1 cells", "value": "not enhanced"}, {"measurement": "MR1-Ag complex on refolding MR1 in the presence of 5-A-RU and the compound", "setting": "human MR1", "value": "failed to yield any MR1-Ag complexes"}]}
{"molecule": "O=CC=O", "note": "[glyoxal]", "values": [{"measurement": "Jurkat.MAIT activation compared to 5-A-RU added by itself", "setting": "Jurkat.MAIT cells", "value": "increase in Jurkat.MAIT activation"}, {"measurement": "MR1 upregulation compared to 5-A-RU added by itself", "setting": "C1R.MR1 cells", "value": "further increase in MR1 upregulation"}, {"measurement": "MR1-Ag complex on refolding MR1 in the presence of 5-A-RU and the compound", "setting": "human MR1", "value": "led to a correctly folded MR1-Ag complex"}]}
{"molecule": "CC(=O)C=O", "note": "[methylglyoxal]", "values": [{"measurement": "Jurkat.MAIT activation compared to 5-A-RU added by itself", "setting": "Jurkat.MAIT cells", "value": "increase in Jurkat.MAIT activation"}, {"measurement": "MR1 upregulation compared to 5-A-RU added by itself", "setting": "C1R.MR1 cells", "value": "further increase in MR1 upregulation"}, {"measurement": "MR1-Ag complex on refolding MR1 in the presence of 5-A-RU and the compound", "setting": "human MR1", "value": "led to a correctly folded MR1-Ag complex"}]}
{"molecule": "Cc1cc2nc3c(=O)[nH]c(=O)nc-3n(C[C@H](O)[C@H](O)[C@H](O)CO)c2cc1C", "note": "[riboflavin]", "values": [{"measurement": "effect of riboflavin added during culture of NZ9000 on MAIT cell activation by the supernatant", "setting": "Jurkat.MAIT cells; L. lactis NZ9000 supernatant, 3 μg/ml riboflavin", "value": "inhibited MAIT cell activation"}]}
{"molecule": "reduced 6-hydroxymethyl-8-D-ribityllumazine [rRL-6-CH2OH]", "values": [{"measurement": "recognition by SKW.MAIT cells with Tyr95α mutated to Ala95 or Phe95", "setting": "SKW.MAIT cells", "value": "ablated recognition"}]}
